Experimental data reported in patent US4680382A, “Analogues of actinomycin D” (priority 1986, dated 1987).

Key:
rat hepatic microsomes = test: Stimulation of adrenochrome formation (superoxide generation) in rat hepatic microsomal incubations; settings: no SOD; for adrenochrome formation: 480 nm, 37° C., no more than 100 μM drug, basal 2.11 ± 0.11
[1] = target: T1, NADPH cytochrome P-450 reductase (rat liver microsomes) (Rattus norvegicus, UniProt P00388); test: Stimulation of NADPH oxidation in rat hepatic microsomal incubations; settings: for NADPH oxid: 340 nm, 37° C., phenobarbital induced microsomes, mean ± standard error of triplicate, basal 9.11 ± 0.30; for percentage stimulation of NADPH oxidation over basal rate: (drug-stimulated rate - basal rate)/basal rate × 100
T1 sequence (P00388 1-678): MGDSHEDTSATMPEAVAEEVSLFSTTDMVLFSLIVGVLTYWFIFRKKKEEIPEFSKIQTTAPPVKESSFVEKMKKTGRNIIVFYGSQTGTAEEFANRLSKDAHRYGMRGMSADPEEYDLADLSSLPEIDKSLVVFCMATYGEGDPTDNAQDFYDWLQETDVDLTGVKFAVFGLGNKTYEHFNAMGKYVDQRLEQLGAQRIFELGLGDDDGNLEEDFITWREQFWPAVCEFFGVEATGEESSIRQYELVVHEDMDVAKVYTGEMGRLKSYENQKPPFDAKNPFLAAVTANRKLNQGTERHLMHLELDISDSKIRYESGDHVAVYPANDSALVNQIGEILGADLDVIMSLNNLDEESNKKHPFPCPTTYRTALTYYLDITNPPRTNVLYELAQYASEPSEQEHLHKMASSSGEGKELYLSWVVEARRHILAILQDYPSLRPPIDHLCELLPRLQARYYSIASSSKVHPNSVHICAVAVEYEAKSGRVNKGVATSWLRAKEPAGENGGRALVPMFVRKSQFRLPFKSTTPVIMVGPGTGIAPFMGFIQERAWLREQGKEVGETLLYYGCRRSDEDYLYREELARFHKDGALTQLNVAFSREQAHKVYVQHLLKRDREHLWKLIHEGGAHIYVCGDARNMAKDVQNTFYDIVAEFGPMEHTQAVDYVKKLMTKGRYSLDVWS

liver microsomes = test: EPR detection of free-radical intermediates with liver microsomes and NADPH (anaerobic); format: biochemical; settings: NADPH, potassium phosphate buffer
Procedure: No free-radical intermediates were detected in the absence of enzyme or substrates.
Melting points are determined on a Thomas-Hoover melting point apparatus at a heating rate of 2° C./min. Thin-layer chromatography was performed on silica gel plates (Brinkmann Instrument Inc.). Solvent systems were (A) EtOAc-acetone (4:1), (B) CHCl3 -MeOH (9:1) and (C) Cifferri, the organic phase of the mixture EtOAc-MeOH-H2 O (20:1:20). High-performance liquid chromatography was carried out on a Varian Model 5020 gradient liquid chromatograph equipped with a CD-111L chromatography data system and fitted with a Varian reversed-phase C18 column with the following solvent systems: I, CH3 CN-5 mM NH4 OAc buffer, pH 6.4 (68:32 isocratic), flow rate 1.5 mL/min; II, 65-95% water-methanol gradient for 70 min, 1 mL/min; III, 10-90% H2 O-MeOH gradient for 120 min, 1 mL/min, with UV-visible variable- and fixed-wavelength dual detectors at 254, 440, 470 and 520 nm. IR spectra were obtained on a Perkin-Elmer Model 237 Infra Cord with KBr micropellets or in chloroform solutions. UV-visible spectra were obtained on a Gilford 250 spectrophorometer, which, with the addition of a base-line reference compensator (Analog Multiplexer 5053) and thermoprogrammer, auto four cell programmer and thermoelectric cell holder 2577, were used to obtain thermal denaturation curves. Specific rotation values were determined in chloroform solutions with a Cary 60 spectropolarimeter. NMR spectra were obtained in a JEOL FQ-90 MHz spectrometer equipped with Fourier transform. EPR spectra analyses were recorded in a Varian E-9 EPR spectrometer. All elemental analyses were within ±0.4%.

P388/ADR = test: In vivo activity against P388/adriamycin-resistant leukemia; parameters: species or system BDF1 mice; settings: for P388/ADR optimal dose: ip, days 1, 5 and 9
Procedure: (§1) ^a Male BDF1 mice inoculated ip: 10^6 cells inoculum, day 0.
(§2) Drugs administered in 10% dimethyl sulfoxidesaline on days 1, 5 and 9. %
(§3) ILS = percent increase in life span. Fractions in parentheses = tumorfree
(§4) survivors/total on day 60. P388/S (adriamycin sensitive) and P388/ADR
(§5) (adriamycin resistant) tumors were evaluated in the same experiment with […]

P388/S = test: In vivo activity against P388/S (adriamycin sensitive) leukemia, Table VII; parameters: species or system BDF1 mice; settings: for P388/S % ILS / P388/S tumor-free survivors/total on day 60: at optimal dose; for P388/S optimal dose: ip, days 1, 5 and 9
Procedure: as §1, §2, §3, §4, §5

Row | Structure (SMILES) | adrenochrome formation (rat hepatic microsomes) | percentage stimulation of adrenochrome formation over basal rate (rat hepatic microsomes) | NADPH oxid [1] | percentage stimulation of NADPH oxidation over basal rate [1] [%] | free-radical intermediate detected by EPR (liver microsomes) | P388/ADR % ILS (P388/ADR; at optimal dose) [%] | P388/ADR optimal dose (P388/ADR) [mg/kg] | P388/S % ILS (P388/S) [%] | P388/S tumor-free survivors/total on day 60 (P388/S) | P388/S optimal dose (P388/S) [mg/kg] | P388/ADR tumor-free survivors/total on day 60 (P388/ADR; at optimal dose)
1 | CCN(CC)C(=O)c1c2nc3c(C(=O)N(CC)CC)ccc(C)c3oc-2c(C)c(=O)c1N [1b] | 2.13 ± 0.19 nmol min^-1 (mg of protein)^-1 | +1% | 8.9 ± 0.90 nmol min^-1 (mg of protein)^-1 | -2 |  |  |  |  |  |  | 
2 | CCN(CC)C(=O)c1c2nc3c(C(=O)N(CC)CC)cc(O)c(C)c3oc-2c(C)c(=O)c1N [2b] | 2.13 ± 0.19 nmol min^-1 (mg of protein)^-1 | +1% | 8.9 ± 0.90 nmol min^-1 (mg of protein)^-1 | -2 |  |  |  |  |  |  | 
3 | CCN(CC)C(=O)c1c2nc3c(C(=O)N(CC)CC)c(N)c(O)c(C)c3oc-2c(C)c(=O)c1N [4b, 2,8-Diamino-1,9-bis(diethylcarbamoyl)-7-hydroxy-4,6-dimethyl-3-H-phenoxazine-3-one] | 2.13 ± 0.19 nmol min^-1 (mg of protein)^-1 | +1% | 8.9 ± 0.90 nmol min^-1 (mg of protein)^-1 | -2 | no free-radical intermediates were detectable |  |  |  |  |  | 
4 | CCN(CC)C(=O)c1c2nc3c(C(=O)N(CC)CC)c4nc(C)oc4c(C)c3oc-2c(C)c(=O)c1N [7b] | 2.13 ± 0.19 nmol min^-1 (mg of protein)^-1 | +1% | 8.9 ± 0.90 nmol min^-1 (mg of protein)^-1 | -2 | no free-radical intermediates were detectable |  |  |  |  |  | 
5 | CCN(CC)C(=O)c1cc(=O)c(C)c2oc3c(C)c4oc(C)nc4c(C(=O)N(CC)CC)c3nc1-2 [9b] | 2.13 ± 0.19 nmol min^-1 (mg of protein)^-1 | +1% | 8.9 ± 0.90 nmol min^-1 (mg of protein)^-1 | -2 |  |  |  |  |  |  | 
6 | COc1cccc2c1C(=O)c1c(O)c3c(c(O)c1C2=O)C[C@@](O)(C(=O)CO)C[C@@H]3O[C@H]1C[C@H](N)[C@H](O)[C@H](C)O1 [adriamycin, reference compound] |  |  |  |  |  | 33 | 3.5 | 97 | 1/8 | 3.0 | 
7 | CO[C@@]12[C@H](COC(N)=O)C3=C(C(=O)C(C)=C(N)C3=O)N1C[C@@H]1N[C@@H]12 [mitomycin C, reference compound] |  |  |  |  |  | 400 | 3.0 | 136 | 1/8 | 3.0 | 5/8
